Target: SARS-CoV-2 nsp12/7/8 (RTC) complex (Severe acute respiratory syndrome coronavirus 2, UniProt P0DTD1)
Test: biochemical
Assay type: biochemical
Settings: not given

`C[C@H]1[C@H](C)CC[C@]2(C(=O)O)CC[C@]3(C)C(=CC[C@@H]4[C@@]5(C)CC[C@H](O)C(C)(C)[C@@H]5CC[C@]43C)[C@H]12` [Ursolic acid, reference compound] and `C[C@H]1[C@H](C)CC[C@]2(C(=O)O)CC[C@]3(C)C(=CC[C@@H]4[C@@]5(C)C[C@@H](O)[C@H](O)[C@@](C)(CO)[C@@H]5[C@H](O)C[C@]43C)[C@H]12` [Madecassic Acid] cannot be ordered by IC50: > 100 µM for the first, > 100 µM for the second.

`CC(C)Oc1ccc(-c2nn([C@@H](C)c3oc4ccc(F)cc4c(=O)c3-c3cccc(F)c3)c3ncnc(N)c23)cc1F` [Umbralisib, reference compound] and `C[C@]1(O)C[C@@H](c2nc(-c3ccc4ccc(-c5ccccc5)nc4c3)c3c(N)nccn32)C1` [Linsitinib, reference compound] cannot be ordered by IC50: > 100 µM for the first, > 100 µM for the second.

Compared with `CC1(C)[C@@H](O)CC[C@]2(C)[C@H]3C(=O)C=C4[C@@H]5C[C@@](C)(C(=O)O)CC[C@]5(C)CC[C@@]4(C)[C@]3(C)CC[C@@H]12` [Enoxolone, reference compound], `CC1(C)CC[C@]2(C(=O)O)[C@H](O)C[C@]3(C)C(=CC[C@@H]4[C@@]5(C)CC[C@H](O)[C@@](C)(C=O)[C@@H]5CC[C@]43C)[C@@H]2C1` [Quillaic acid] is 2.4-fold higher in IC50: 35.5 ± 4.61 µM for the first, 83.9 ± 9.31 µM for the second.

`C[C@@H]1C(=O)O[C@H](C)[C@H]1C[C@@H](O)[C@](C)(O)[C@H]1CC[C@@]2(O)C3=CC(=O)[C@@H]4C[C@@H](O)[C@@H](O)C[C@]4(C)[C@H]3CC[C@]12C` [Cyasterone] and `CC[C@@]1([C@@H]2O[C@@H]([C@H]3O[C@@](O)(CO)[C@H](C)C[C@@H]3C)C[C@@H]2C)CC[C@H]([C@]2(C)CC[C@]3(C[C@H](O)[C@@H](C)[C@@H]([C@@H](C)[C@@H](OC)[C@H](C)C(=O)O)O3)O2)O1` [Monensin] cannot be ordered by IC50: > 100 µM for the first, > 100 µM for the second.

`O=C(c1cccc(-c2nc3ccccc3[nH]2)n1)N1CCN(C(=O)c2cccc(-c3nc4ccccc4[nH]3)n2)CC1` [Omilancor, reference compound] and `Cc1ccc(-n2nc(C(C)(C)C)cc2NC(=O)Nc2ccc(OCCN3CCOCC3)c3ccccc23)cc1` [Doramapimod, reference compound] cannot be ordered by IC50: > 100 µM for the first, > 100 µM for the second.

`CC(C)=CC/C=C(\C)[C@H]1CC[C@]2(C)[C@@H]1[C@H](O)C[C@@H]1[C@@]3(C)CC[C@H](O[C@@H]4O[C@H](CO)[C@@H](O)[C@H](O)[C@H]4O[C@@H]4O[C@H](CO)[C@@H](O)[C@H](O)[C@H]4O)C(C)(C)[C@@H]3CC[C@]12C` [Ginsenoside Rg5] and `C=C(C)[C@@H]1CC[C@]2(C)CC[C@]3(C)[C@H](CC[C@@H]4[C@@]5(C)CCC(=O)C(C)(C)[C@@H]5CC[C@]43C)[C@@H]12` [Lupenone] cannot be ordered by IC50: > 100 µM for the first, > 100 µM for the second.

Same assay, conditions: primer-extension PAGE assay, 150 nM RTC, 5% DMSO, 30 min preincubation at 37 °C; mean and SD of at least 3 independent experiments

`C[C@H](NC(=O)c1c(N)nn2cccnc12)c1cc2cccc(C#Cc3cnn(C)c3)c2c(=O)n1-c1ccccc1` [Eganelisib, reference compound] and `Cc1ccc(C(=O)Nc2ccc(Oc3cc4cnn(C)c4cc3-c3cn[nH]c3)c(F)c2)c(=O)n1-c1ccc(F)cc1` [Merestinib, reference compound] cannot be ordered by IC50: > 100 µM for the first, > 100 µM for the second.

Compared with `CC(C)(C)NC(=O)c1ccc(Oc2cc(F)c(CC(=O)O)cc2Cl)c(NS(=O)(=O)c2ccc(C3CC3)cc2Cl)c1` [Vidupiprant, reference compound], `CC(C)CC(=O)Nc1cncc(-c2ccc3[nH]nc(-c4nc5c(-c6cccc(F)c6)cncc5[nH]4)c3c2)c1` [Adavivint, reference compound] is higher in IC50: 63.5 ± 24.3 µM for the first, > 100 µM for the second. The first is the more potent here.

First: CC1(C)CC[C@]2(NC(=O)C(C)(F)F)CC[C@]3(C)[C@H](C(=O)C=C4[C@@]5(C)C=C(C#N)C(=O)C(C)(C)[C@@H]5CC[C@]43C)[C@@H]2C1 [Omaveloxolone, reference compound]
Second: C[C@@H]1CC[C@]2(C(=O)O)CC[C@]3(C)C(=CC[C@@H]4[C@@]5(C)CC[C@H](O)[C@@](C)(CO)[C@@H]5CC[C@]43C)[C@@H]2[C@]1(C)O [Rotundic acid]
The IC50 of the first is lower: 13 ± 4.28 µM for the first, > 100 µM for the second. The first is the more potent here.

`CC[C@H](CC[C@@H](C)[C@H]1CC[C@H]2[C@@H]3CC=C4C[C@@H](O[C@@H]5O[C@H](CO)[C@@H](O)[C@H](O)[C@H]5O)CC[C@]4(C)[C@H]3CC[C@]12C)C(C)C` [Daucosterol, reference compound] and `C[C@@H]1CC[C@@]2(OC1)O[C@H]1C[C@H]3[C@@H]4CC=C5C[C@@H](O[C@@H]6O[C@H](CO)[C@@H](O)[C@H](O)[C@H]6O)CC[C@]5(C)[C@H]4CC[C@]3(C)[C@H]1[C@@H]2C` [Disogluside] cannot be ordered by IC50: > 100 µM for the first, > 100 µM for the second.

Same assay, conditions: read-out: IC50: compound concentration required to inhibit by 50% the SARS-CoV-2 RTC enzymatic activity

`CC(C)(O)CC[C@H]1OC(C)(C)O[C@]1(C)[C@H]1CC[C@@]2(O)C3=CC(=O)[C@@H]4C[C@H]5OC(C)(C)O[C@H]5C[C@]4(C)[C@H]3CC[C@]12C` [Ecdysterone 2,3:20,22-diacetonide] and `CC(C)(O)[C@@H]1CC[C@](C)([C@H]2[C@@H](O)C[C@@]3(C)[C@@H]4C[C@H](O)[C@H]5C(C)(C)[C@@H](O)CC[C@@]56C[C@@]46CC[C@]23C)O1` [Cycloastragenol] cannot be ordered by IC50: > 100 µM for the first, > 100 µM for the second.

Going from `C[C@H]1O[C@@H](O[C@H]2CC[C@@]3(C)[C@@H](CC[C@]4(C)[C@@H]3C=C[C@]35OC[C@@]6(CCC(C)(C)C[C@H]63)[C@H](O)C[C@]54C)[C@]2(C)CO)[C@H](O)[C@@H](O[C@@H]2O[C@H](CO)[C@@H](O)[C@H](O)[C@H]2O)[C@H]1O` [Saikosaponin D] to `CC1(C)CC[C@]2(C(=O)O)CC[C@]3(C)C(=CC[C@@H]4[C@@]5(C)CC[C@H](O[C@@H]6O[C@H](C(=O)O)[C@@H](O[C@@H]7O[C@@H](CO)[C@H](O)[C@H]7O)[C@H](O)[C@H]6O)C(C)(C)[C@@H]5CC[C@]43C)[C@@H]2C1` [Narcissiflorine], the IC50 falls from > 100 µM to 17.2 ± 5.96 µM.

Going from `CC1(C)CC[C@]2(C(=O)O)CCC3=C([C@@H](CCl)C[C@@H]4[C@@]5(C)C[C@H](O)[C@H](O)[C@@](C)(C(=O)O)[C@@H]5CC[C@@]34C)[C@@H]2C1` [Senegenin] to `C[C@H]1[C@H](C)CC[C@]2(C(=O)O)CC[C@]3(C)C(=CC[C@@H]4[C@@]5(C)CC[C@H](O)C(C)(C)[C@@H]5CC[C@]43C)[C@H]12` [3-Epiursolic Acid], the IC50 falls from > 100 µM to 11.6 ± 3.97 µM.

Going from `COc1ccc2cc(-c3cc(-c4cc(Cl)cc(Cl)c4)nn3[C@@H](C)c3ccc(C(=O)NCCC(=O)O)cc3)ccc2c1` [3-[[4-[(1S)-1-[3-(3,5-dichlorophenyl)-5-(6-methoxynaphthalen-2-yl)pyrazol-1-yl]ethyl]benzoyl]amino]propanoic acid, reference compound] to `C=CCOc1cccc(C(=O)[C@@H]2[C@@H]3CCCN3[C@]3(C(=O)Nc4c(C)cc(C)cc43)[C@@]23C(=O)Nc2ccccc23)c1` [(1'S,3R,3'S,7a'S)-5'',7''-dimethyl-1'-{[3-(prop-2-en-1-yloxy)phenyl]carbonyl}-5',6',7',7a'-tetrahydro-1'H-dispiro[indole-3,2'-pyrrolizine-3',3''-indole]-2,2''(1H,1''H)-dione], the IC50 rises from 11.8 ± 6.43 µM to > 100 µM.

`CC(C)[C@@H](NC(=O)C1(c2ccccc2)CCN(C(=O)OC(C)(C)C)CC1)C(=O)N[C@@H](C(=O)O)c1ccccc1` [(2R)-[(N-{[1-(tert-butoxycarbonyl)-4-phenylpiperidin-4-yl]carbonyl}-D-valyl)amino](phenyl)ethanoic acid] and `C/C(Nc1ccc(Oc2ccc(N/C(C)=C3\C(=O)C[C@@H]4[C@H]3C4(C)C)cc2)cc1)=C1/C(=O)C[C@@H]2[C@H]1C2(C)C` [(1S,2Z,5R)-2-[1-[4-[4-[[(1Z)-1-[(1S,5R)-6,6-dimethyl-3-oxo-2-bicyclo[3.1.0]hexanylidene]ethyl]amino]phenoxy]anilino]ethylidene]-6,6-dimethylbicyclo[3.1.0]hexan-3-one] cannot be ordered by IC50: > 100 µM for the first, > 100 µM for the second.

First: CC(C)=CCC[C@@](C)(O)[C@H]1CC[C@]2(C)[C@@H]1[C@H](O)C[C@@H]1[C@@]3(C)CC[C@H](O)C(C)(C)[C@@H]3[C@@H](O[C@@H]3O[C@H](CO)[C@@H](O)[C@H](O)[C@H]3O)C[C@]12C [(20R)-Ginsenoside Rh1]
Second: C=C(C)[C@@H]1CC[C@]2(C(=O)O)CC[C@]3(C)[C@H](CC[C@@H]4[C@@]5(C)CC[C@H](O[C@@H]6OC[C@H](O)[C@H](O)[C@H]6O[C@@H]6O[C@@H](C)[C@H](O)[C@@H](O)[C@H]6O)[C@@](C)(CO)[C@@H]5CC[C@]43C)[C@@H]12 [Pulchinenoside A]
The IC50 of the first is higher: > 100 µM for the first, 24.7 ± 0.42 µM for the second.

`CC(C)=CCCC(C(=O)O)C1CCC2(C)C3=C(CCC12C)C1(C)CCC(=O)C(C)(C)C1CC3` (centres unmarked) [3-Dehydrotrametenolic acid] and `CC(=O)O[C@@H](C[C@@H](C)C1=C2C[C@H](O)[C@H]3[C@@]4(C)CCC(=O)C(C)(C)[C@@H]4CC[C@]3(C)[C@@]2(C)CC1=O)[C@H]1OC1(C)C` [Alisol C monoacetate] cannot be ordered by IC50: > 100 µM for the first, > 100 µM for the second.

`C[C@H]1CC[C@@H]2N(C1)C[C@H]1[C@@H]3C[C@H]4[C@@H](CC(=O)[C@H]5C[C@@H](O[C@@H]6O[C@H](CO)[C@@H](O)[C@H](O)[C@H]6O)CC[C@@]54C)[C@@H]3CC[C@H]1[C@]2(C)O` [Imperialine 3-beta-D-glucoside] and `C[C@@H]1CC[C@@]2(OC1)O[C@H]1C[C@H]3[C@@H]4CC=C5C[C@@H](O[C@@H]6O[C@H](CO)[C@@H](O)[C@H](O)[C@H]6O[C@@H]6O[C@@H](C)[C@H](O)[C@@H](O)[C@H]6O)CC[C@]5(C)[C@H]4CC[C@]3(C)[C@@]1(O)[C@@H]2C` [(2S,3R,4R,5R,6S)-2-[(2R,3R,4S,5S,6R)-4,5-dihydroxy-6-(hydroxymethyl)-2-[(1R,2S,4S,5'R,6R,7S,8S,9S,12S,13R,16S)-8-hydroxy-5',7,9,13-tetramethylspiro[5-oxapentacyclo[10.8.0.02,9.04,8.013,18]icos-18-ene-6,2'-oxane]-16-yl]oxyoxan-3-yl]oxy-6-methyloxane-3,4,5-triol] cannot be ordered by IC50: > 100 µM for the first, > 100 µM for the second.

`O=C(CCn1c2c(c3ccccc31)CCn1c-2nc2ccccc2c1=O)N1CCN(C2=Nc3ccccc3Oc3ccccc32)CC1` [13-{3-[4-(dibenzo[b,f][1,4]oxazepin-11-yl)piperazin-1-yl]-3-oxopropyl}-8,13-dihydroindolo[2',3':3,4]pyrido[2,1-b]quinazolin-5(7H)-one] and `CC[C@H](/C=C/[C@@H](C)[C@H]1CC[C@H]2C3=CC[C@H]4C[C@@H](O[C@@H]5O[C@H](CO)[C@@H](O)[C@H](O)[C@H]5O)CC[C@]4(C)[C@H]3CC[C@]12C)C(C)C` [Alpha-Spinasterol glucoside] cannot be ordered by IC50: > 100 µM for the first, > 100 µM for the second.
